Experimental data as given in US8106055B2, “Substituted amide compounds” (Gruenenthal GmbH, priority 2007, dated 2012).

How the values were obtained:
[1] = target: T1, bradykinin 1 receptor (B1R) of the rat (Rattus norvegicus, UniProt P97583); experiment: Functional investigation on the rat bradykinin 1 receptor (B1R), Ca2+ FLIPR assay in CHO K1 rB1R cells; type: cell-based; conditions: test substance 10 μM, Ca2+ FLIPR, CHO K1 rB1R cells; for inhibition at 10 µM: CHO-K1, B1R antagonism rat, read-out: B1R Ant. r [10 μM] % Inhibition; for B1R Ant. r [10 μM] % Inhibition: B1R antagonism rat
T1 construct: expressed in transfected cells; host or cells: CHO K1 cells
T1 sequence (P97583 1-337): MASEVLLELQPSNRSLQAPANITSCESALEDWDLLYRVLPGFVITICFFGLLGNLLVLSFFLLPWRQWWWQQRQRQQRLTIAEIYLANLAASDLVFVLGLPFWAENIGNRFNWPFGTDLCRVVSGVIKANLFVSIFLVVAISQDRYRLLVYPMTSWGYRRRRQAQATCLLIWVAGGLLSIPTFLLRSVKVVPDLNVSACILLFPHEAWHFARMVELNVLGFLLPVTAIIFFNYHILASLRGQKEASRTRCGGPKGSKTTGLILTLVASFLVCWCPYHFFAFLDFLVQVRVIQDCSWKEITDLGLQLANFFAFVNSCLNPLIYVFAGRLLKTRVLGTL
How it was run: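 Fluo-4 Ca2+ readout, peak fluorescence. Stable CHO K1 transfectants; compound pre-incubated 10-20 min, then EC80 agonist—Lys-Des-Arg9-BK for hB1R, Des-Arg9-BK for rB1R. % inhibition vs maximal inhibition; IC50 from multiple concentrations, duplicate/triplicate, ≥2 independent runs.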

[2] = target: T2, serotonin (5-HT) reuptake (Rattus norvegicus, UniProt P31652); experiment: Inhibition of serotonin (5HT) reuptake in synaptosomes from rat brain; type: biochemical; conditions: Table 2, test concentration 10 μM; for inhibition at 10 µM: read-out: 5-HT reuptake
T2 construct: synaptosomes are freshly isolated from areas of the rat brain; from tissue; host or cells: rat brain synaptosomes (P2 fraction)
How it was run: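 Compounds screened at 10 μM and reported as percent inhibition of serotonin uptake. Uptake measured in a freshly prepared P2 synaptosomal fraction from rat brain.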

T2 sequence (P31652 whole entry): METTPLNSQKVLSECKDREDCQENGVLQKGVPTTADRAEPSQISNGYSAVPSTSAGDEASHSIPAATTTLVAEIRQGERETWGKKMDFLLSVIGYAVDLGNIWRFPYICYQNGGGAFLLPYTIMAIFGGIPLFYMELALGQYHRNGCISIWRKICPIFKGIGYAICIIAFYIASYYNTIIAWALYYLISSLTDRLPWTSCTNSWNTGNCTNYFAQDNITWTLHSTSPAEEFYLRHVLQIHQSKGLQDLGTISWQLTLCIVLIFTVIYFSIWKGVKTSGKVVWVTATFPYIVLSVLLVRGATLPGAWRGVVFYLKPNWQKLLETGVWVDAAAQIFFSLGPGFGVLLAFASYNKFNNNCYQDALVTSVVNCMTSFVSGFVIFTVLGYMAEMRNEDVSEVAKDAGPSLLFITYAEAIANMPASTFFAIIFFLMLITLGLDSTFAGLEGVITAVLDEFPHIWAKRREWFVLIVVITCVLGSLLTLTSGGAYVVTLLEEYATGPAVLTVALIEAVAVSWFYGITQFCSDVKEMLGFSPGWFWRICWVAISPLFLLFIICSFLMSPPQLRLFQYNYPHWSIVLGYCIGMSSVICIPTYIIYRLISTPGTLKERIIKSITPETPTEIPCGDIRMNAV

Row | Compound | inhibition at 10 µM [1] | inhibition at 10 µM [2] | B1R Ant. r [10 μM] % Inhibition [1] | 5-HT reuptake [2]
1 | CN(CCOCC(=O)NC1CCC(C(c2ccccc2)N2CCCC2)CC1)S(=O)(=O)c1c(Cl)cc(Cl)cc1Cl (stereo not shown) [Example 606, 2-{2-[methyl-(2,4,6-trichlorobenzenesulfonyl)-amino]-ethoxy}-N-[4-(phenylpyrrolidin-1-yl-methyl)-cyclohexyl]-acetamide] | 37% | 85% | – | –
2 | CN(C)C(c1ccccc1)C1CCC(NC(=O)COC2CCCN(S(=O)(=O)c3c(Cl)cc(Cl)cc3Cl)C2)CC1 (stereo not shown) [Example 608, N-[4-(dimethylaminophenylmethyl)-cyclohexyl]-2-[1-(2,4,6-trichlorobenzenesulfonyl)-piperidin-3-yloxy]-acetamide] | 34% | 81% | – | –
3 | CN(C)C(c1ccccc1)C1CCC(NC(=O)COC2CCN(S(=O)(=O)c3c(Cl)cc(Cl)cc3Cl)C2)CC1 (stereo not shown) [Example 609, N-[4-(dimethylaminophenylmethyl)-cyclohexyl]-2-[1-(2,4,6-trichlorobenzenesulfonyl)-pyrrolidin-3-yloxy]-acetamide] | 32% | 86% | – | –
4 | CN(C)C(c1ccccc1)C1CCC(NC(=O)COCC2CCCN2S(=O)(=O)c2c(Cl)cc(Cl)cc2Cl)CC1 (stereo not shown) [Example 611, N-[4-(Dimethylaminophenylmethyl)-cyclohexyl]-2-[1-(2,4,6-trichlorobenzenesulfonyl)-pyrrolidin-2-ylmethoxy]-acetamide] | – | – | 68% | 84 % inhibition
5 | CN(C)C(c1ccccc1)C1CCC(NC(=O)COCC2CCCN2S(=O)(=O)c2c(Cl)cc(Cl)cc2Cl)CC1 (stereo not shown) [Example 612, N-[4-(Dimethylaminophenylmethyl)-cyclohexyl]-2-[1-(2,4,6-trichlorobenzenesulfonyl)-pyrrolidin-2-ylmethoxy]-acetamide] | – | – | 64% | 84 % inhibition
6 | CN(C)C(c1ccccc1)C1CCC(NC(=O)COCC2CCCN2S(=O)(=O)c2c(Cl)cc(Cl)cc2Cl)CC1 (stereo not shown) [Example 613, N-[4-(Dimethylaminophenylmethyl)-cyclohexyl]-2-[1-(2,4,6-trichlorobenzenesulfonyl)-pyrrolidin-2-ylmethoxy]-acetamide] | – | – | 34% | 62 % inhibition
7 | CN(C)C(c1ccccc1)C1CCC(CNC(=O)COCCN(C)S(=O)(=O)c2c(Cl)cc(Cl)cc2Cl)CC1 (stereo not shown) [Example 614, N-[4-(dimethylaminophenylmethyl)-cyclohexylmethyl]-2-{2-[(2,4,6-trichlorobenzenesulfonyl)-methylamino]-ethoxy}-acetamide] | – | 90% | 29% | –
8 | CN(C)C(c1ccccc1)C1CCC(NC(=O)COCCN(C)S(=O)(=O)c2c(Cl)cc(Cl)cc2Cl)C1 (stereo not shown) [Example 615, N-[3-(dimethylaminophenylmethyl)-cyclopentyl]-2-{2-[(2,4,6-trichlorobenzenesulfonyl)-methylamino]-ethoxy}-acetamide] | 26% | 81% | – | –
